From US20080009418A1, “Selective Inhibitors” (Alchemia LTD., priority 2004, published 2008)

Legend:
Human melanocortin (MC5) = biological target: T1, Human melanocortin (MC5) (Homo sapiens, UniProt P33032); assay: Radioligand binding, human melanocortin MC5 membranes, FlashPlate, [125I]-NDP-αMSH; conditions: compound at 10 μM; for A5 radioligand binding inhibition: human melanocortin MC5 membranes
T1 construct: purchased Perkin Elmer Biosignal
Outline: (§1)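 Cloned human receptor membranes were coated onto FlashPlate wells and incubated with radioligand and compound (added from a 0.5 mM DMSO daughter plate) for 1 hour at room temperature in the dark. Scintillation counting gave percent inhibition, with DMSO defining total and reference ligand defining non-specific binding.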

Human μ-opioid (MOP) = biological target: T2, Human μ-opioid (MOP) (Homo sapiens, UniProt P35372); assay: Radioligand binding, human μ-opioid (MOP) membranes, FlashPlate, [3H]-Naloxone; conditions: compound at 10 μM; for A7 radioligand binding inhibition: human μ-opioid (MOP) membranes
T2 construct: purchased Perkin Elmer Biosignal
T2 sequence (P35372 whole entry): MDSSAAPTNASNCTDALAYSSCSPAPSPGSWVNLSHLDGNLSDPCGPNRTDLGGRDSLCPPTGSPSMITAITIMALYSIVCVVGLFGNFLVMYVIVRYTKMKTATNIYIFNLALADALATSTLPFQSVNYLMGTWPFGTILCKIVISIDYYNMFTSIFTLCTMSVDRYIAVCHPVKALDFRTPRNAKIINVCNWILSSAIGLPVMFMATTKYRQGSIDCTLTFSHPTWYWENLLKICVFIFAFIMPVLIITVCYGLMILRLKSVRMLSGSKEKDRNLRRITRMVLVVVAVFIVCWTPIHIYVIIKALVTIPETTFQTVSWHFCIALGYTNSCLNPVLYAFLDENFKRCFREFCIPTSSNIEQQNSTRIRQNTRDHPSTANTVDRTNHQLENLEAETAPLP
Outline: as §1

[1] = biological target: T3, Human melanin-concentrating hormone (MCH1) (Homo sapiens, UniProt Q99705); assay: Radioligand binding, human melanin-concentrating hormone MCH1 membranes, FlashPlate, [125I]-S36057; conditions: compound at 10 μM; for A6 radioligand binding inhibition: human MCH1 membranes
T3 construct: purchased Perkin Elmer Biosignal
T3 sequence (Q99705 whole entry): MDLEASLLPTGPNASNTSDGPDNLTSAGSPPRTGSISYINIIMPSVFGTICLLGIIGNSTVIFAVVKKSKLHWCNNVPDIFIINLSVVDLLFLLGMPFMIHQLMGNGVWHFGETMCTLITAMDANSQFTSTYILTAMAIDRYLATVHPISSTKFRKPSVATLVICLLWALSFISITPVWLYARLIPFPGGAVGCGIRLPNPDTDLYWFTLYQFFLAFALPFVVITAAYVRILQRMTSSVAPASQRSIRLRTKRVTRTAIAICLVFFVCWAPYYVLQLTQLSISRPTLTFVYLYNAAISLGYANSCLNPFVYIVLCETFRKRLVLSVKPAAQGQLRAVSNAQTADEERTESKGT
Outline: as §1

[2] = biological target: T4, Human neuropeptide Y (NPY-Y1) (Homo sapiens, UniProt P25929); assay: Radioligand binding, human neuropeptide Y NPY-Y1 membranes, FlashPlate, [125I]-PYY; conditions: compound at 10 μM
T4 construct: purchased Perkin Elmer Biosignal
T4 sequence (P25929 1-384): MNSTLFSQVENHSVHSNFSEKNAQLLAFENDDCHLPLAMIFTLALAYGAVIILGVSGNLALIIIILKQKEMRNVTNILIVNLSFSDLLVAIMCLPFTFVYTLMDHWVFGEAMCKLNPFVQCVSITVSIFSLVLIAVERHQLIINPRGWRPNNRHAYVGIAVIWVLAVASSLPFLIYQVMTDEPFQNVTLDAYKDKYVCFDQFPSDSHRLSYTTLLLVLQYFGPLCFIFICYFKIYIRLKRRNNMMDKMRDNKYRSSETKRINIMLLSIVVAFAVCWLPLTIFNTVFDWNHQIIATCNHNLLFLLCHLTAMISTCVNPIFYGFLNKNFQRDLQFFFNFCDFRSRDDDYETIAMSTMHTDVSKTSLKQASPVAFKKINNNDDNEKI
Outline: as §1

Mouse urotensin (mUR2) = biological target: T5, Mouse urotensin (mUR2) (Mus musculus, UniProt Q8VIH9); assay: Radioligand binding, mouse urotensin mUR2 membranes, FlashPlate, [125I]-Urotensin II; conditions: compound at 10 μM; for A11 radioligand binding inhibition: mouse urotensin mUR2 membranes
T5 construct: purchased Perkin Elmer Biosignal
T5 sequence (Q8VIH9 1-385): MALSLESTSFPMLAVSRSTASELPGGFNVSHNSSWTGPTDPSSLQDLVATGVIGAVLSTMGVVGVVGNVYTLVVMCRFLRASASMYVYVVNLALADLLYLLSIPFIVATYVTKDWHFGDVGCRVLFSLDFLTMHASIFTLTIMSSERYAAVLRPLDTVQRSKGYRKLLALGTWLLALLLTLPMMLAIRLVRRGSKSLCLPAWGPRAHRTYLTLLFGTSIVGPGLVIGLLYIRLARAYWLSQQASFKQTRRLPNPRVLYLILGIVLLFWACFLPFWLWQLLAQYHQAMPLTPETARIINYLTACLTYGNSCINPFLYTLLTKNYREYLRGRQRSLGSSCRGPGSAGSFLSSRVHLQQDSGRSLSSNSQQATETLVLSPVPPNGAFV
Outline: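 Cloned mouse urotensin (mUR2) receptor membranes from Perkin Elmer Biosignal were immobilized in FlashPlate microplates using a proprietary coating. Each well got 19.5 μl buffer, then 0.5 μl of DMSO, reference ligand, or compound. Adding 5 μl of [125I]-Urotensin II, diluted to 5× final concentration in binding buffer, started binding. Plates were sealed with TopSeal-A and incubated 1 hour at room temperature in the dark. Wells were counted for 30 seconds each on a TopCount after a 60-second delay, and percentage inhibition was calculated.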

Human Melanocortin (MC4) = biological target: T6, Human Melanocortin (MC4) (Homo sapiens, UniProt P32245); assay: Radioligand binding, human melanocortin MC4 membranes, FlashPlate, [125I]-NDP-αMSH; conditions: compound at 10 μM; for A4 radioligand binding inhibition: human melanocortin MC4 membranes
T6 construct: purchased Perkin Elmer Biosignal
T6 sequence (P32245 whole entry): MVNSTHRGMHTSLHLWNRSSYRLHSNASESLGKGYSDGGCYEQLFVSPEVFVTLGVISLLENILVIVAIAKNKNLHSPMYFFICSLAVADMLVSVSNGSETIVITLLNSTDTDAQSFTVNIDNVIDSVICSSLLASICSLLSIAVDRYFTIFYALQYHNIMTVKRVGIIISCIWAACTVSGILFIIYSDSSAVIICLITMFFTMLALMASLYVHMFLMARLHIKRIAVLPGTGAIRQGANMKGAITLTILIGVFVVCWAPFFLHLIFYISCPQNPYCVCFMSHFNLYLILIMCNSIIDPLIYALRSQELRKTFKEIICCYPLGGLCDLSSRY
Outline: as §1

Human neurokinin (NK1) = biological target: T7, Human neurokinin (NK1) (Homo sapiens, UniProt P25103); assay: Radioligand binding, human neurokinin NK1 membranes, filtration, [125I]-Substance P; conditions: compound at 10 μM; for A8 radioligand binding inhibition: human neurokinin NK1 membranes
T7 construct: purchased Perkin Elmer Biosignal
T7 sequence (P25103 whole entry): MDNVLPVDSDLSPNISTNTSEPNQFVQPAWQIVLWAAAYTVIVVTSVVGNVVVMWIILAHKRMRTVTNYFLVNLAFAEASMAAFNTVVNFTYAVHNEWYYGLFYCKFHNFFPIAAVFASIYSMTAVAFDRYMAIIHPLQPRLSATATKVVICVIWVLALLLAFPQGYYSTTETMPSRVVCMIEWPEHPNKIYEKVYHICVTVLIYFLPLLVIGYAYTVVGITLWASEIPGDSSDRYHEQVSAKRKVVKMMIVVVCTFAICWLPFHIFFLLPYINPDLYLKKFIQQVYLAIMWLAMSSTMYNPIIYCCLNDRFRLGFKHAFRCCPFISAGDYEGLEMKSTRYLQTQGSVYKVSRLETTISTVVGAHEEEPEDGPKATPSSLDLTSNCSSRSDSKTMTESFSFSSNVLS
Outline: (§2)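 Percent inhibition of radioligand binding measured on recombinant human membranes: NK1 with [125I]-Substance P, KOP with [3H]-Diprenorphine. Incubation 1 h at room temperature, then harvest onto 0.3% PEI-soaked filters, cold Tris-HCl pH 7.4 washes and scintillation counting; non-specific binding from reference ligand wells.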

Human Melanocortin (MC3) = biological target: T8, Human Melanocortin (MC3) (Homo sapiens, UniProt P41968); assay: Radioligand binding, human melanocortin MC3 membranes, FlashPlate, [125I]-NDP-αMSH; conditions: compound at 10 μM; for A3 radioligand binding inhibition: human melanocortin MC3 membranes
T8 construct: purchased Perkin Elmer Biosignal
T8 sequence (P41968 whole entry): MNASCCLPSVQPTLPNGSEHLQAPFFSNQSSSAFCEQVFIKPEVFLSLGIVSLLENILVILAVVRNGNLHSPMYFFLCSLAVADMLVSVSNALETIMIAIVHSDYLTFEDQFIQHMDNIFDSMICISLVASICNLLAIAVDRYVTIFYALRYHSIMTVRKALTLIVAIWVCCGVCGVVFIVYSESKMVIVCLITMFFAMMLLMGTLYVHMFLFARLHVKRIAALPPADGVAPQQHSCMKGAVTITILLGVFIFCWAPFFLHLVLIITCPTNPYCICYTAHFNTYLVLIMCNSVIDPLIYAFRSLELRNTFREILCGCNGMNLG
Outline: as §1

Human κ-Opioid (KOP) = biological target: T9, Human κ-Opioid (KOP) (Homo sapiens, UniProt P41145); assay: Radioligand binding, human κ-opioid (KOP) membranes, filtration, [3H]-Diprenorphine; conditions: compound at 10 μM; for A2 radioligand binding inhibition: human κ-opioid (KOP) membranes
T9 construct: purchased Perkin Elmer Biosignal
T9 sequence (P41145 whole entry): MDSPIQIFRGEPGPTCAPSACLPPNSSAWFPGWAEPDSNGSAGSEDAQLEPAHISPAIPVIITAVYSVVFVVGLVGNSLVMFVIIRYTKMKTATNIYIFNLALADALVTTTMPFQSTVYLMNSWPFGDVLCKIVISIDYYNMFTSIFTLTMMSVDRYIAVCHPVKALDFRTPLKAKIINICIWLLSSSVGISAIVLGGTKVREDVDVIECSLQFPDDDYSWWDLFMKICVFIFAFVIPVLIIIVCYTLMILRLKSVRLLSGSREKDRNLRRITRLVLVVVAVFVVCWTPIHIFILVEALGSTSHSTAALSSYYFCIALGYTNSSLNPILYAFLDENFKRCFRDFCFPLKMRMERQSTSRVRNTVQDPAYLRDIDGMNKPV
Outline: as §2

Human opioid (ORL1) = biological target: T10, Human opioid (ORL1) (Homo sapiens, UniProt P41146); assay: Radioligand binding, human opioid ORL1 membranes, FlashPlate, [125I]-Nociceptin; conditions: compound at 10 μM
T10 construct: purchased Perkin Elmer Biosignal
T10 sequence (P41146 whole entry): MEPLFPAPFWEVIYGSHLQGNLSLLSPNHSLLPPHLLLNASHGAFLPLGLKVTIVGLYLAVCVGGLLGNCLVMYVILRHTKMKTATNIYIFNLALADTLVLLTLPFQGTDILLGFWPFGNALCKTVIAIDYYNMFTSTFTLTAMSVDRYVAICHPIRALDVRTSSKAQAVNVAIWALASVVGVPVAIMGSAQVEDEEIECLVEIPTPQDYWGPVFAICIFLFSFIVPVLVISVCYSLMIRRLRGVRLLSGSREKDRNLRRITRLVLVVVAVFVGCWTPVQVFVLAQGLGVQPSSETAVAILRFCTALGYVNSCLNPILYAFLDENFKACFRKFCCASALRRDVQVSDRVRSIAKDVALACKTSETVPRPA
Outline: as §1

Human δ-opioid (DOP) = biological target: T11, Human δ-opioid (DOP) (Homo sapiens, UniProt P41143); assay: Radioligand binding, human δ-opioid (DOP) membranes, FlashPlate, [3H]-Bremazocine; conditions: compound at 10 μM; for A1 radioligand binding inhibition: human δ-opioid (DOP) membranes
T11 construct: purchased Perkin Elmer Biosignal
T11 sequence (P41143 whole entry): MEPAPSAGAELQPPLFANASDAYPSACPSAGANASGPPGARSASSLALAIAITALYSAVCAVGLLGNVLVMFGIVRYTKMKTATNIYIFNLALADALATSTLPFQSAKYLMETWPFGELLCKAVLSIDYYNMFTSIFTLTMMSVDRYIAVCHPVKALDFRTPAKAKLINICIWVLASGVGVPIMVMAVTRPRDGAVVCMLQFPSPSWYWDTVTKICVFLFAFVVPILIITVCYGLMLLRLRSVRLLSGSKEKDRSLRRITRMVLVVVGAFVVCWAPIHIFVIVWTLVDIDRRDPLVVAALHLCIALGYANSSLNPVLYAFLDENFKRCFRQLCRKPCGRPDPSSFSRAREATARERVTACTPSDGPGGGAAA
Outline: as §1

T1 sequence (P33032 whole entry): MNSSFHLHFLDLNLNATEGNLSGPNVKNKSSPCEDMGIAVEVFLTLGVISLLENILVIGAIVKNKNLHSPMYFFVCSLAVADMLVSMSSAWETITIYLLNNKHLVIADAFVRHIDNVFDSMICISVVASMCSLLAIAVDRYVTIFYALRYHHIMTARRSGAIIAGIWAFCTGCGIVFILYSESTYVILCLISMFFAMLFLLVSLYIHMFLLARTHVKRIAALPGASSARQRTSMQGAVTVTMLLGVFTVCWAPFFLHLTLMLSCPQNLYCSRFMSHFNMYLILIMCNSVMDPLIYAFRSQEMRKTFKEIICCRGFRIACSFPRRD

COC[C@H]1OC(OCc2ccc(Cl)cc2)[C@H](NC(=O)CNC(=N)N)[C@@H](OCc2ccc(-c3ccccc3)cc2)[C@@H]1O (stereo partly shown) [compound 28]
A5 radioligand binding inhibition (Human melanocortin (MC5)): + (“+” indicates greater than 50% inhibition at 10 μM)
A7 radioligand binding inhibition (Human μ-opioid (MOP)): − (“−” indicates less than 50% inhibition at 10 μM)
A6 radioligand binding inhibition [1]: + (“+” indicates greater than 50% inhibition at 10 μM)
A9 radioligand binding inhibition ([2]; human NPY-Y1 membranes): − (“−” indicates less than 50% inhibition at 10 μM)
A11 radioligand binding inhibition (Mouse urotensin (mUR2)): − (“−” indicates less than 50% inhibition at 10 μM)
A4 radioligand binding inhibition (Human Melanocortin (MC4)): + (“+” indicates greater than 50% inhibition at 10 μM)
A8 radioligand binding inhibition (Human neurokinin (NK1)): + (“+” indicates greater than 50% inhibition at 10 μM)
A3 radioligand binding inhibition (Human Melanocortin (MC3)): − (“−” indicates less than 50% inhibition at 10 μM)
A2 radioligand binding inhibition (Human κ-Opioid (KOP)): − (“−” indicates less than 50% inhibition at 10 μM)
A10 radioligand binding inhibition (Human opioid (ORL1); human ORL1 membranes): − (“−” indicates less than 50% inhibition at 10 μM)
A1 radioligand binding inhibition (Human δ-opioid (DOP)): − (“−” indicates less than 50% inhibition at 10 μM)

COC[C@H]1OC(OCc2ccc3ccccc3c2)[C@H](NC(=O)CNC(=N)N)[C@@H](OCc2ccc(-c3ccccc3)cc2)[C@@H]1O (stereo partly shown) [compound 15]
A5 radioligand binding inhibition (Human melanocortin (MC5)): + (“+” indicates greater than 50% inhibition at 10 μM)
A7 radioligand binding inhibition (Human μ-opioid (MOP)): + (“+” indicates greater than 50% inhibition at 10 μM)
A6 radioligand binding inhibition [1]: + (“+” indicates greater than 50% inhibition at 10 μM)
A9 radioligand binding inhibition ([2]; human NPY-Y1 membranes): − (“−” indicates less than 50% inhibition at 10 μM)
A11 radioligand binding inhibition (Mouse urotensin (mUR2)): − (“−” indicates less than 50% inhibition at 10 μM)
A4 radioligand binding inhibition (Human Melanocortin (MC4)): + (“+” indicates greater than 50% inhibition at 10 μM)
A8 radioligand binding inhibition (Human neurokinin (NK1)): − (“−” indicates less than 50% inhibition at 10 μM)
A3 radioligand binding inhibition (Human Melanocortin (MC3)): − (“−” indicates less than 50% inhibition at 10 μM)
A2 radioligand binding inhibition (Human κ-Opioid (KOP)): − (“−” indicates less than 50% inhibition at 10 μM)
A10 radioligand binding inhibition (Human opioid (ORL1); human ORL1 membranes): − (“−” indicates less than 50% inhibition at 10 μM)
A1 radioligand binding inhibition (Human δ-opioid (DOP)): − (“−” indicates less than 50% inhibition at 10 μM)

N=C(N)NCCC(=O)NC1C(OCc2ccc(Cl)cc2)OC(COCc2ccc3ccccc3c2)C(O)C1OCc1ccc2ccccc2c1 (stereo not shown) [compound 429]
A5: inhibition of radioligand binding (Human melanocortin (MC5); [125I]-NDP-αMSH, human MC5 membranes): + (“+” indicates greater than 50% inhibition at 10 μM)
A7: inhibition of radioligand binding (Human μ-opioid (MOP); [3H]-Naloxone, human MOP membranes): − (“−” indicates less than 50% inhibition at 10 μM)
A6: inhibition of radioligand binding ([1]; [125I]-S36057, human MCH1 membranes): + (“+” indicates greater than 50% inhibition at 10 μM)
A9: inhibition of radioligand binding ([2]; [125I]-PYY, human NPY-Y1 membranes): − (“−” indicates less than 50% inhibition at 10 μM)
A11: inhibition of radioligand binding (Mouse urotensin (mUR2); [125I]-Urotensin II, mouse mUR2 membranes): − (“−” indicates less than 50% inhibition at 10 μM)
A4: inhibition of radioligand binding (Human Melanocortin (MC4); [125I]-NDP-αMSH, human MC4 membranes): + (“+” indicates greater than 50% inhibition at 10 μM)
A8: inhibition of radioligand binding (Human neurokinin (NK1); [125I]-Substance P, human NK1 membranes): + (“+” indicates greater than 50% inhibition at 10 μM)
A3: inhibition of radioligand binding (Human Melanocortin (MC3); [125I]-NDP-αMSH, human MC3 membranes): + (“+” indicates greater than 50% inhibition at 10 μM)
A2: inhibition of radioligand binding (Human κ-Opioid (KOP); [3H]-Diprenorphine, human KOP membranes): − (“−” indicates less than 50% inhibition at 10 μM)
A10: inhibition of radioligand binding (Human opioid (ORL1); [125I]-Nociceptin, human ORL1 membranes): − (“−” indicates less than 50% inhibition at 10 μM)
A1: inhibition of radioligand binding (Human δ-opioid (DOP); [3H]-Bremazocine, human DOP membranes): − (“−” indicates less than 50% inhibition at 10 μM)

COCC1OC(OCCc2ccccc2)C(NC(=O)CNC(=N)N)C(OCc2ccc3ccccc3c2)C1O (stereo not shown) [compound 226]
A5: inhibition of radioligand binding (Human melanocortin (MC5); [125I]-NDP-αMSH, FlashPlate): + (“+” indicates greater than 50% inhibition at 10 μM)
A7: inhibition of radioligand binding (Human μ-opioid (MOP); [3H]-Naloxone, FlashPlate): − (“−” indicates less than 50% inhibition at 10 μM)
A6: inhibition of radioligand binding ([1]; [125I]-S36057, FlashPlate): − (“−” indicates less than 50% inhibition at 10 μM)
A9: inhibition of radioligand binding ([2]; [125I]-PYY, FlashPlate): − (“−” indicates less than 50% inhibition at 10 μM)
A11: inhibition of radioligand binding (Mouse urotensin (mUR2); [125I]-Urotensin II, FlashPlate): − (“−” indicates less than 50% inhibition at 10 μM)
A4: inhibition of radioligand binding (Human Melanocortin (MC4); [125I]-NDP-αMSH, FlashPlate): + (“+” indicates greater than 50% inhibition at 10 μM)
A8: inhibition of radioligand binding (Human neurokinin (NK1); [125I]-Substance P, filtration): + (“+” indicates greater than 50% inhibition at 10 μM)
A3: inhibition of radioligand binding (Human Melanocortin (MC3); [125I]-NDP-αMSH, FlashPlate): + (“+” indicates greater than 50% inhibition at 10 μM)
A2: inhibition of radioligand binding (Human κ-Opioid (KOP); [3H]-Diprenorphine, filtration): − (“−” indicates less than 50% inhibition at 10 μM)
A10: inhibition of radioligand binding (Human opioid (ORL1); [125I]-Nociceptin, FlashPlate): − (“−” indicates less than 50% inhibition at 10 μM)
A1: inhibition of radioligand binding (Human δ-opioid (DOP); [3H]-Bremazocine, FlashPlate): − (“−” indicates less than 50% inhibition at 10 μM)

CO[C@H]1[C@H](O)[C@@H](COCc2ccc3ccccc3c2)OC(OCc2ccc(Cl)cc2)[C@@H]1NC(=O)CCCNC(=N)N (stereo partly shown) [compound 100]
A5 radioligand binding, percentage inhibition (Human melanocortin (MC5); [125I]-NDP-αMSH): + (“+” indicates greater than 50% inhibition at 10 μM)
A7 radioligand binding, percentage inhibition (Human μ-opioid (MOP); [3H]-Naloxone): + (“+” indicates greater than 50% inhibition at 10 μM)
A6 radioligand binding, percentage inhibition ([1]; [125I]-S36057): + (“+” indicates greater than 50% inhibition at 10 μM)
A9 radioligand binding, percentage inhibition ([2]; [125I]-PYY): − (“−” indicates less than 50% inhibition at 10 μM)
A11 radioligand binding, percentage inhibition (Mouse urotensin (mUR2); [125I]-Urotensin II): − (“−” indicates less than 50% inhibition at 10 μM)
A4 radioligand binding, percentage inhibition (Human Melanocortin (MC4); [125I]-NDP-αMSH): + (“+” indicates greater than 50% inhibition at 10 μM)
A8 radioligand binding, percentage inhibition (Human neurokinin (NK1); [125I]-Substance P): + (“+” indicates greater than 50% inhibition at 10 μM)
A3 radioligand binding, percentage inhibition (Human Melanocortin (MC3); [125I]-NDP-αMSH): + (“+” indicates greater than 50% inhibition at 10 μM)
A2 radioligand binding, percentage inhibition (Human κ-Opioid (KOP); [3H]-Diprenorphine): − (“−” indicates less than 50% inhibition at 10 μM)
A10 radioligand binding, percentage inhibition (Human opioid (ORL1); [125I]-Nociceptin): + (“+” indicates greater than 50% inhibition at 10 μM)
A1 radioligand binding, percentage inhibition (Human δ-opioid (DOP); [3H]-Bremazocine): − (“−” indicates less than 50% inhibition at 10 μM)
